Measured values taken from patent US12408667B2, “Herbicidal mixtures comprising isoxaflutole, pyroxasulfone and an imidazolinone herbicide; and their use in soybean and cotton cultures” (BASF SE, priority 2018, dated 2025).

Test system: GALAP (Galium aparine)
Assay: greenhouse experiment, herbicidal action, evaluated on a scale from 0 to 100
Type: in vivo
Conditions: pre-emergence greenhouse
Text: Synergism can be described as an interaction where the combined effect of two or more compounds is greater than the sum of the individual effects of each of the compounds. The presence of a synergistic effect in terms of percent control, between two mixing partners (X and Y) can be calculated using the Colby equation (Colby, S. R., 1967, Calculating Synergistic and Antagonistic Responses in Herbicide Combinations, Weeds, 15, 21-22): E=X+Y−XY/100
When the observed combined control effect is greater than the expected (calculated) combined control effect (E), then the combined effect is synergistic.
The culture containers used were plastic flowerpots containing loamy sand with approximately 3.0% of humus as the substrate. The seeds of the test plants were sown separately for each species. For pre-emergence treatment, the active ingredients, which had been suspended or emulsified in water, were applied directly after sowing by means of finely distributing nozzles. The containers were irrigated gently to promote germination and growth and subsequently covered with transparent plastic hoods until the plants had rooted. This cover caused uniform germination of the test plants, unless this had been impaired by the active ingredients. […] During this time, the plants were tended, and their response to the individual treatments was evaluated. […]

CS(=O)(=O)c1cc(C(F)(F)F)ccc1C(=O)c1cnoc1C1CC1 [Isoxaflutole, isoxaflutole]
Herbicidal action against GALAP, Found (Isoxaflutole 12.5 g/ha alone, 20 days, scale 0 to 100): 0
Herbicidal action against GALAP, Found (Isoxaflutole 25 g/ha alone, test period 20 days, scale 0 to 100 (100 = no emergence or complete destruction)): 0
